Columns and labels:
Test in all cases: relative viability (nuclei count vs DMSO), 5 days (fraction); higher = more cells survive
Gemcitabine + Bortezomib = compound: Nc1ccn([C@@H]2O[C@H](CO)[C@@H](O)C2(F)F)c(=O)n1 [Gemcitabine] + CC(C)C[C@H](NC(=O)[C@H](Cc1ccccc1)NC(=O)c1cnccn1)B(O)O [Bortezomib] (partner 0.002 µM)
How it was run: (§1)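 One day after seeding in 1536-well plates, lung cancer cell lines were dosed by pin tool. Dosing was either single-drug or a fixed anchor-drug dose plus five library-drug doses (not always all listed) in √10 steps. After 5 days, nuclei were stained in one fix-and-stain step and counted on 4× images, and relative viability is the nuclei count of treated wells over that of vehicle wells, given as the median of duplicate plates.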

Gemcitabine + Dasatinib = compound: Nc1ccn([C@@H]2O[C@H](CO)[C@@H](O)C2(F)F)c(=O)n1 [Gemcitabine] + Cc1nc(Nc2ncc(C(=O)Nc3c(C)cccc3Cl)s2)cc(N2CCN(CCO)CC2)n1 [Dasatinib] (partner 0.075 µM)
How it was run: as §1

Gemcitabine + Luminespib = compound: Nc1ccn([C@@H]2O[C@H](CO)[C@@H](O)C2(F)F)c(=O)n1 [Gemcitabine] + CCNC(=O)c1noc(-c2cc(C(C)C)c(O)cc2O)c1-c1ccc(CN2CCOCC2)cc1 [Luminespib] (partner 0.01 µM)
How it was run: as §1

[1] = compound: Nc1ccn([C@@H]2O[C@H](CO)[C@@H](O)C2(F)F)c(=O)n1 [Gemcitabine] + CC(=O)c1c(C)c2cnc(Nc3ccc(N4CCNCC4)cn3)nc2n(C2CCCC2)c1=O [Palbociclib] (partner 0.5 µM)
How it was run: as §1

Cell Line | relative viability (Gemcitabine + Bortezomib; first compound 0.001 µM) | relative viability (Gemcitabine + Bortezomib; first compound 0.003162 µM) | relative viability (Gemcitabine + Bortezomib; first compound 0.01 µM) | relative viability (Gemcitabine + Bortezomib; first compound 0.03162 µM) | relative viability (Gemcitabine + Bortezomib; first compound 0.1 µM) | relative viability (Gemcitabine + Dasatinib; first compound 0.001 µM) | relative viability (Gemcitabine + Dasatinib; first compound 0.003162 µM) | relative viability (Gemcitabine + Dasatinib; first compound 0.01 µM) | relative viability (Gemcitabine + Dasatinib; first compound 0.03162 µM) | relative viability (Gemcitabine + Dasatinib; first compound 0.1 µM) | relative viability (Gemcitabine + Luminespib; first compound 0.001 µM) | relative viability (Gemcitabine + Luminespib; first compound 0.003162 µM) | relative viability (Gemcitabine + Luminespib; first compound 0.01 µM) | relative viability (Gemcitabine + Luminespib; first compound 0.03162 µM) | relative viability (Gemcitabine + Luminespib; first compound 0.1 µM) | relative viability ([1]; first compound 0.001 µM) | relative viability ([1]; first compound 0.003162 µM) | relative viability ([1]; first compound 0.01 µM) | relative viability ([1]; first compound 0.03162 µM) | relative viability ([1]; first compound 0.1 µM)
HARA | 1.15 | 1.22 | 1.04 | 0.695 | 0.1 | 0.244 | 0.331 | 0.241 | 0.228 | 0.0727 | 0.683 | 0.847 | 0.719 | 0.0504 | 0.0409 | 0.234 | 0.283 | 0.219 | 0.179 | 0.139
NCI-H2126 | 1.05 | 1.1 | 1.04 | 0.985 | 0.67 | 0.647 | 0.6 | 0.548 | 0.389 | 0.19 | 0.975 | 0.828 | 0.773 | 0.414 | 0.257 | 0.323 | 0.367 | 0.312 | 0.29 | 0.281
LXF-289 | 0.995 | 1.02 | 0.768 | 0.178 | 0.0983 | 0.227 | 0.22 | 0.0855 | 0.0424 | 0.0448 | 0.627 | 0.706 | 0.479 | 0.106 | 0.112 | 0.606 | 0.604 | 0.428 | 0.127 | 0.14
NCI-H460 | 1.24 | 1.09 | 0.419 | 0.0106 | 0.0083 | 0.495 | 0.524 | 0.46 | 0.0224 | 0.0058 | 0.0273 | 0.0507 | 0.0367 | 0.0148 | 0.014 | 0.129 | 0.212 | 0.0945 | 0.0273 | 0.0115
NCI-H2009 | 1.06 | 0.586 | 0.133 | 0.111 | 0.0676 | 0.297 | 0.219 | 0.101 | 0.101 | 0.0766 | 1.08 | 0.751 | 0.325 | 0.179 | 0.126 | 0.216 | 0.203 | 0.193 | 0.132 | 0.0838

Source: the supplement of paper PMC10307832
